Here are results for seven molecules from US12728177B2, “Disinfectant composition with rapid antiviral efficacy” (priority 2015, dated 2026).

The subject of data set [1] is Bacteriophage Phi X174 (ATCC 13706-81). Put plainly: Virucidal infectivity (percent reduction in virus infectivity, E. coli outgrowth with resazurin dye).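 Also: exposed phage diluted into broth, E. coli outgrowth followed 16-24 h at 37 °C by fluorescence rate, unexposed phage set as 100% signal, phage-free as 0%.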 The note with it: 10-minute exposure.
Procedure: Bacteriophage Phi X174 (ATCC 13706-81) was added 1:10 (−108 plaque forming units (PFU) per sample) into a solution containing the composition of interest. Following a 10-minute exposure, the sample was transferred 1:10 into Tryptic Soy Broth (TSB). Following 10 minutes in TSB, a second 1:10 dilution was completed into an outgrowth solution for the Phi X174 host (E. coli ATCC 13706) that contained TSB and a resazurin dye. E. coli outgrowth was then monitored at 37° C. for 16-24 hours and the rate of fluorescence development was calculated. The rate observed when Phi X174 was not exposed to any composition represented a 100% Phi X174 signal. The rate observed without Phi X174 present represented a “0% signal.” The rate obtained following Phi X174 exposure to a given composition was compared to the signal obtained with no exposure to calculate the “percent reduction in virus infectivity.”
The conditions of data set [2]: 25° C.; cited from earlier work.
Setting [3] is: secondary agent 1 mM + Maleic Acid 3 mM.
Where [4] appears, read: secondary agent 2-7 mM + Maleic Acid 3 mM.
Where [5] appears, read: secondary agent 2-7 mM + Phosphonc Acid 50-150 mM.
Setting [6] is: secondary agent 2-7 mM + Sulfosuccinic Acid 10-32 mM.

`CCCCCCCC/C=C\CCCCCCCC(=O)N(C)CCS(=O)(=O)[O-].[Na+]` [Hostapon TPHC, Sodium Methyl Oleoyl Taurate]: the “% Reduction, Secondary Antiviral Agent Alone” value (“% Reduction” below) in data set [1] (agent alone 25 mM), in data set [1] (agent alone 42 mM), in data set [1] (agent alone 50 mM) and in data set [1] (agent alone 67 mM) was 0% in each case. The “reduction in virus infectivity, in Combination with Maleic Acid (3 mM)” value (shortened to “reduction in virus infectivity … (3 mM)”) in data set [1] (secondary agent 25 mM + Maleic Acid 3 mM), in data set [1] (secondary agent 42 mM + Maleic Acid 3 mM), in data set [1] (secondary agent 50 mM + Maleic Acid 3 mM) and in data set [1] (secondary agent 67 mM + Maleic Acid 3 mM) was 0% each time. In addition, the “reduction in virus infectivity, in Combination with Phosphonc Acid (50-150 mM)” value (shortened to “reduction in virus infectivity … (50-150 mM)”) in data set [1] (secondary agent 25 mM + Phosphonc Acid 50-150 mM) turned out to be 99%; in data set [1] (secondary agent 42 mM + Phosphonc Acid 50-150 mM), 96%; in data set [1] (secondary agent 50 mM + Phosphonc Acid 50-150 mM), 99%; in data set [1] (secondary agent 67 mM + Phosphonc Acid 50-150 mM), 99%. Besides, the “reduction in virus infectivity, in Combination with Sulfosuccinic Acid (10-32 mM)” value (“reduction in virus infectivity … (10-32 mM)” below) in data set [1] (secondary agent 25 mM + Sulfosuccinic Acid 10-32 mM) turned out to be 99%; in data set [1] (secondary agent 42 mM + Sulfosuccinic Acid 10-32 mM), 88%; in data set [1] (secondary agent 50 mM + Sulfosuccinic Acid 10-32 mM) it was 50%; in data set [1] (secondary agent 67 mM + Sulfosuccinic Acid 10-32 mM), 1%.
On to `O=C(O)CC(C(=O)O)S(=O)(=O)O` (centres unmarked) [Sulfosuccinic Acid], for which the “pka1 (first acid dissociation constant)” value in data set [2] was −1.65. Moreover, in data set [1] (Sulfosuccinic Acid 10-32 mM, no secondary agent), the “reduction in virus infectivity, Primary Antiviral Agent without secondary agent (None)” value was 0-75%.
Laureth-9 [Hetoxol LA-9]: the “% Reduction” value in data set [1] (agent alone 6 mM) worked out at 0%; in data set [1] (agent alone 17 mM) it was 0%; in data set [1] (agent alone 50 mM), 0%; in data set [1] (agent alone 150 mM) it was 2%. For the same molecule, the “reduction in virus infectivity … (3 mM)” value in data set [1] (secondary agent 0.2 mM + Maleic Acid 3 mM) was determined as 9%; in data set [1] (setting [3]) it was 65%; in data set [1] (secondary agent 5 mM + Maleic Acid 3 mM), 0%; in data set [1] (secondary agent 27 mM + Maleic Acid 3 mM), 0%. Also, the “reduction in virus infectivity … (50-150 mM)” value in data set [1] (secondary agent 0.2 mM + Phosphonc Acid 50-150 mM) was determined as 57%; in data set [1] (secondary agent 1 mM + Phosphonc Acid 50-150 mM), 62%; in data set [1] (secondary agent 5 mM + Phosphonc Acid 50-150 mM) it was 11%; in data set [1] (secondary agent 27 mM + Phosphonc Acid 50-150 mM), 10%. Moreover, the “reduction in virus infectivity … (10-32 mM)” value in data set [1] (secondary agent 0.2 mM + Sulfosuccinic Acid 10-32 mM) is 5%; in data set [1] (secondary agent 1 mM + Sulfosuccinic Acid 10-32 mM), 0%; in data set [1] (secondary agent 5 mM + Sulfosuccinic Acid 10-32 mM) it was 0%; in data set [1] (secondary agent 27 mM + Sulfosuccinic Acid 10-32 mM) it was 0%.
Turning to `CCCCCCCCCCO[C@@H]1O[C@H](CO)[C@@H](O)[C@H](O)[C@H]1O` [EcoSense 3000, Decyl Glucoside], the “% Reduction” value in data set [1] (agent alone 8 mM) came to 14%; in data set [1] (agent alone 23 mM), 0%; in data set [1] (agent alone 69 mM), 0%; in data set [1] (agent alone 207 mM) it was 0%. In addition, the “reduction in virus infectivity … (3 mM)” value in data set [1] (secondary agent 0.3 mM + Maleic Acid 3 mM), in data set [1] (setting [3]), in data set [1] (secondary agent 7 mM + Maleic Acid 3 mM) and in data set [1] (secondary agent 37 mM + Maleic Acid 3 mM) was 0% each time.
As to `NC(N)=O` [Urea], the “% Reduction” value in data set [1] (agent alone 7 mM), in data set [1] (agent alone 20 mM), in data set [1] (agent alone 60 mM) and in data set [1] (agent alone 180 mM) was 0% each time. Besides, the “reduction in virus infectivity … (3 mM)” value is 8% in data set [1] (secondary agent 3 mM + Maleic Acid 3 mM), 6% in data set [1] (secondary agent 9 mM + Maleic Acid 3 mM), 1% in data set [1] (secondary agent 28 mM + Maleic Acid 3 mM) and 0% in data set [1] (secondary agent 85 mM + Maleic Acid 3 mM). Moreover, the “reduction in virus infectivity … (50-150 mM)” value turned out to be 57% in data set [1] (secondary agent 3 mM + Phosphonc Acid 50-150 mM), 71% in data set [1] (secondary agent 9 mM + Phosphonc Acid 50-150 mM), 53% in data set [1] (secondary agent 28 mM + Phosphonc Acid 50-150 mM) and 56% in data set [1] (secondary agent 85 mM + Phosphonc Acid 50-150 mM). For the same molecule, the “reduction in virus infectivity … (10-32 mM)” value in data set [1] (secondary agent 3 mM + Sulfosuccinic Acid 10-32 mM) came to 1%; in data set [1] (secondary agent 9 mM + Sulfosuccinic Acid 10-32 mM), 0%; in data set [1] (secondary agent 28 mM + Sulfosuccinic Acid 10-32 mM) it was 25%; in data set [1] (secondary agent 85 mM + Sulfosuccinic Acid 10-32 mM), 0%.
Consider `[Cl-].[Cl-].[Zn+2]` [Zinc Chloride], for which the “% Reduction” value in data set [1] (agent alone 2 mM) came out at 5%; in data set [1] (agent alone 6 mM), 0%; in data set [1] (agent alone 18 mM), 0%; in data set [1] (agent alone 53 mM), 0%. Further, the “reduction in virus infectivity … (3 mM)” value in data set [1] (secondary agent 53 mM + Maleic Acid 3 mM) is recorded as 0%; in data set [1] (setting [4]), 99%; in data set [1] (secondary agent 6-13 mM + Maleic Acid 3 mM) it was 99%; in data set [1] (secondary agent 18-26 mM + Maleic Acid 3 mM), 99%. In addition, the “reduction in virus infectivity … (50-150 mM)” value in data set [1] (secondary agent 53 mM + Phosphonc Acid 50-150 mM) was 88%; in data set [1] (setting [5]), 10%; in data set [1] (secondary agent 6-13 mM + Phosphonc Acid 50-150 mM) it was 28%. Further, the “reduction in virus infectivity … (10-32 mM)” value in data set [1] (secondary agent 53 mM + Sulfosuccinic Acid 10-32 mM), in data set [1] (setting [6]), in data set [1] (secondary agent 6-13 mM + Sulfosuccinic Acid 10-32 mM) and in data set [1] (secondary agent 18-26 mM + Sulfosuccinic Acid 10-32 mM) was 99% throughout.
In the case of Aluminum chlorohydrate, the “% Reduction” value in data set [1] (agent alone 2 mM) came to 1%; in data set [1] (agent alone 6 mM), 3%; in data set [1] (agent alone 18 mM), 2%; in data set [1] (agent alone 55 mM), 9%. Moreover, the “reduction in virus infectivity … (3 mM)” value in data set [1] (secondary agent 55 mM + Maleic Acid 3 mM) came out at 99%; in data set [1] (setting [4]) it was 17%; in data set [1] (secondary agent 6-14 mM + Maleic Acid 3 mM), 28%; in data set [1] (secondary agent 18-27 mM + Maleic Acid 3 mM) it was 9%. The “reduction in virus infectivity … (50-150 mM)” value is 68% in data set [1] (secondary agent 55 mM + Phosphonc Acid 50-150 mM), 43% in data set [1] (setting [5]), 34% in data set [1] (secondary agent 6-14 mM + Phosphonc Acid 50-150 mM) and 29% in data set [1] (secondary agent 18-27 mM + Phosphonc Acid 50-150 mM). Moreover, the “reduction in virus infectivity … (10-32 mM)” value in data set [1] (secondary agent 55 mM + Sulfosuccinic Acid 10-32 mM), in data set [1] (setting [6]), in data set [1] (secondary agent 6-14 mM + Sulfosuccinic Acid 10-32 mM) and in data set [1] (secondary agent 18-27 mM + Sulfosuccinic Acid 10-32 mM) was 99% each time.
